Assay results published in US20230131427A1, “FUNGICIDAL COMPOSITIONS” (SYNGENTA CROP PROTECTION AG, priority 2020, published 2023).
Several values for one entry are separate records, joined by “and”; a condition that tells them apart may be missing. Equal values may be shown once. Read-outs that look alike come from different tables or passages of the source.

Assays:
[1] = test system: Glomerella lagenarium (Colletotrichum lagenarium); assay: Glomerella lagenarium (Colletotrichum lagenarium) liquid culture / cucumber / preventative (anthracnose); type: cell-based; conditions: Colletotrichum orbiculare, vs untreated control
Method: Mycelia fragments or conidia suspensions of a fungus prepared either freshly from liquid cultures of the fungus or from cryogenic storage, are directly mixed into nutrient broth. DMSO solutions of the test compound (max. 10 mg/mL) are diluted with 0.025% Tween20 by a factor of 50 and 10 μl of this solution is pipetted into a microtiter plate (96-well format). The nutrient broth containing the fungal spores/mycelia fragments is then added to give an end concentration of the tested compound. The test plates are incubated in the dark at 24° C. and 96% relative humidity. The inhibition of fungal growth is determined photometrically after 2 to 7 days, depending on the pathosystem, and percent antifungal activity relative to the untreated check is calculated.
Conidia of the fungus from cryogenic storage are directly mixed into nutrient broth (PDB potato dextrose broth). After placing a (DMSO) solution of test compound into a microtiter plate (96-well format), the nutrient broth containing the fungal spores is added.

Phakopsora pachyrhizi [2] = assay: Phakopsora pachyrhizi / soybean / leaf disc preventative (Asian soybean rust); type: in vivo; conditions: foliar, 288 h, vs untreated control
Method: (§1) Leaf disks or leaf segments of various plant species are cut from plants grown in a greenhouse. The cut leaf disks or segments are placed in multiwell plates (24-well format) onto water agar. The leaf disks are sprayed with a test solution before (preventative) or after (curative) inoculation. Compounds to be tested are prepared as DMSO solutions (max. 10 mg/mL) which are diluted to the appropriate concentration with 0.025% Tween20 just before spraying. The inoculated leaf disks or segments are incubated under defined conditions (temperature, relative humidity, light, etc.) according to the respective test system. A single evaluation of disease level is carried out 3 to 14 days after inoculation, depending on the pathosystem. Percent disease control relative to the untreated check leaf disks or segments is then calculated.
Soybean leaf disks are placed on agar in multiwell plates (24-well format) and sprayed with test solutions. After drying, the leaf disks are inoculated with a spore suspension of the fungus. After appropriate incubation the activity of a compound is assessed approx.12 dpi (days after inoculation) as preventive fungicidal activity.

[3] = test system: Puccinia recondita f. sp. tritici; assay: Puccinia recondita f. sp. tritici / wheat / leaf disc preventative (brown rust); type: in vivo; conditions: foliar, vs untreated control
Method: as §1
Wheat leaf segments cv. Kanzler are placed on agar in multiwell plates (24-well format) and sprayed with the formulated test compound diluted in water. The leaf disks are inoculated with a spore suspension of the fungus 1 day after application. The inoculated leaf segments are incubated at 19° C. and 75% rh under a light regime of 12 h light/12 h darkness in a climate cabinet and the activity of a compound is assessed as percent disease control compared to untreated when an appropriate level of disease damage appears in untreated check leaf segments (7-9 days after application).

Septoria glycines = assay: Example B2: mixtures, preventative activity against Septoria glycines (brown spot), liquid culture; type: cell-based; conditions: Septoria glycines, component A alone
Summary of the method: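 Conidia from fresh culture mixed into potato dextrose broth and added to test compounds in DMSO in 96-well plates. Growth inhibition scored 100-0 (100 = no growth; 0 = well covered by mycelium); synergy of mixtures judged by Colby expected-action (O-E).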

Septoria tritici = assay: Example B3: mixtures, preventative activity against Septoria tritici (leaf blotch), liquid culture; type: cell-based; conditions: component A alone; for inhibition at 0.003125 ppm / inhibition at 0.00625 ppm / inhibition at 0.03 ppm: Zymoseptoria tritici; for inhibition at 0.03 ppm: read-out: Activity (%) A
Summary of the method: (§2)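 Fungal conidia mixed into potato dextrose broth were added to test compounds or mixtures in DMSO in microtiter wells. Fungicidal activity was scored on a 100-0 scale (100 = no disease growth; 0 = well fully covered by mycelium). Synergy was assessed by the Colby formula, comparing observed (O) with expected (E) action.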

[4] = test system: Glomerella lagenarium syn. Colletotrichum lagenarium; assay: Example B1: mixtures, preventative activity against Glomerella lagenarium syn. Colletotrichum lagenarium, liquid culture; type: cell-based; conditions: Colletotrichum orbiculare; component A alone, 0.03 ppm
Summary of the method: as §2

Phakopsora pachyrhizi [5] = assay: Example B5: preventative activity against Phakopsora pachyrhizi (soybean rust), whole soybean plants sprayed, leaf disks inoculated; type: in vivo
Summary of the method: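 Soybean plants sprayed 4 weeks after planting at rates in g a.i./ha; leaf disks from the first trifoliate cut 1 day later and inoculated with rust, five repetitions per rate. Scored 11–14 days post-inoculation relative to untreated infested check (100 = no disease, 0 = heavy infestation).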

[6] = test system: Puccinia recondita f. sp. tritici; assay: Puccinia recondita f. sp. tritici / wheat / leaf disc curative (brown rust); type: in vivo; conditions: foliar, vs untreated control
Method: Leaf disks or leaf segments of various plant species are cut from plants grown in a greenhouse. The cut leaf disks or segments are placed in multiwell plates (24-well format) onto water agar. The leaf disks are sprayed with a test solution before (preventative) or after (curative) inoculation. […] The inoculated leaf disks or segments are incubated under defined conditions (temperature, relative humidity, light, etc.) according to the respective test system. […] Percent disease control relative to the untreated check leaf disks or segments is then calculated. Wheat leaf segments cv. Kanzler are placed on agar in multiwell plates (24-well format). The leaf segments are inoculated with a spore suspension of the fungus. […] The formulated test compound diluted in water is applied 1 day after inoculation.

[7] = test system: Mycosphaerella arachidis syn. Cercospora arachidicola; assay: Example B4: mixtures, preventative activity against Mycosphaerella arachidis syn. Cercospora arachidicola (brown leaf spot of peanut), liquid culture; type: cell-based; conditions: Mycosphaerella arachidis, component A alone
Text: This occurs whenever the action of an active ingredient combination is greater than the sum of the actions of the individual components. The action to be expected E for a given active ingredient combination obeys the so-called COLBY formula and can be calculated as follows (COLBY, S. R. “Calculating synergistic and antagonistic responses of herbicide combination”. Weeds, Vol. 15, pages 20-22; 1967):
If the action actually observed (O) is greater than the expected action (E), then the action of the combination is super-additive, i.e. there is a synergistic effect. In mathematical terms, synergism corresponds to a positive value for the difference of (O-E). In the case of purely complementary addition of activities (expected activity), said difference (O-E) is zero. A negative value of said difference (O-E) signals a loss of activity compared to the expected activity.
Conidia of the fungus from cryogenic storage were directly mixed into nutrient broth (PDB potato dextrose broth). A DMSO solution of the test compounds was placed into a microtiter plate (96-well format) and the nutrient broth containing the fungal spores was added to it.
Cercospora arachidicola (Brown leaf spot of peanut). Fungicidal activity was evaluated on a 100-0 scale (100=no disease growth; 0=well completely covered by mycelium).

[8] = Phakopsora pachyrhizi, foliar, applied alone, 9 g/ha, read-out: Observed Activity (% of untreated) against Phakopsora pachyrhizi

Structure (SMILES) | inhibition of growth at 6.7 ppm [1] | pest or weed control at 67 ppm (Phakopsora pachyrhizi [2]) | pest or weed control at 200 ppm [3] | inhibition at 0.00625 ppm (Septoria tritici; 0.00625 ppm, 100-0 scale) | inhibition at 0.03 ppm [4] | inhibition at 9 g/ha (Phakopsora pachyrhizi [5]; [8]) | Observed Activity (% of untreated) against Phakopsora pachyrhizi (Phakopsora pachyrhizi [5]; applied alone, 2.25 g/ha) | Observed Activity (% of untreated) against Phakopsora pachyrhizi (Phakopsora pachyrhizi [5]; applied alone, 4.5 g/ha) | pest or weed control at 200 ppm [6] | melting point | inhibition at 0.003125 ppm [7] | inhibition at 0.00625 ppm [7] | inhibition at 0.003125 ppm (Septoria glycines; 100-0 scale) | inhibition at 0.00625 ppm (Septoria glycines; 100-0 scale) | other results
CCCc1ccn(-c2ccc(C)c(O/C(=C\OC)C(=O)OC)c2)n1 [X.01, methyl (Z)-3-methoxy-2-[2-methyl-5-(3-propylpyrazol-1-yl)phenoxy]prop-2-enoate] | ≥ 80% | ≥ 80% | ≥ 80% | 50% | 70% | 85% | 24% and 31% | 69% and 64% | ≥ 80% | 91 to 94 °C | 0% | 20% | – | – | inhibition at 0.003125 ppm (Septoria glycines): 20%; inhibition at 0.00625 ppm (Septoria glycines): 70%; inhibition at 0.003125 ppm (Septoria tritici; 0.003125 ppm, 100-0 scale): 20%; Activity (%) A (Septoria tritici; 0.00625 ppm, 100-0 scale): 70%; inhibition at 9 g/ha (Phakopsora pachyrhizi [5]; Phakopsora pachyrhizi, foliar, active ingredient alone, 9 g/ha, read-out: Observed Activity (%) (% of untreated)): 78%; inhibition at 18 g/ha (Phakopsora pachyrhizi [5]; Phakopsora pachyrhizi, foliar, active ingredient alone, 18 g/ha, read-out: Observed Activity (%) (% of untreated)): 85%; Observed Activity (%) (% of untreated) (Phakopsora pachyrhizi [5]; active ingredient alone, 4.5 g/ha): 61% and 87% and 82% and 69%; Observed Activity (%) (% of untreated) (Phakopsora pachyrhizi [5]; active ingredient alone, 9 g/ha): 94% and 90%; Observed Activity (%) (% of untreated) (Phakopsora pachyrhizi [5]; active ingredient alone, 18 g/ha): 97%
CO/C=C(\Oc1cc(-n2ccc(C(C)C)n2)ccc1C)C(=O)OC [X.06, methyl (Z)-2-[5-(3-isopropylpyrazol-1-yl)-2-methyl-phenoxy]-3-methoxy-prop-2-enoate] | ≥ 80% | ≥ 80% | ≥ 80% | 50% | 20% | 97% | 13% and 9% | 61% and 48% and 73% | ≥ 80% | 88 to 91 °C | 20% | 50% | 0% | 50% | inhibition at 0.025 ppm (Septoria glycines; 0.025 ppm, 100-0 scale): 90%; inhibition at 0.03 ppm (Septoria tritici; 100-0 scale): 70%; Activity (%) A (Septoria tritici; 0.003125 ppm, 100-0 scale): 0%; inhibition at 2.25 g/ha (Phakopsora pachyrhizi [5]; Phakopsora pachyrhizi, foliar, applied alone, 2.25 g/ha, read-out: Observed Activity (% of untreated) against Phakopsora pachyrhizi): 10%; inhibition at 18 g/ha (Phakopsora pachyrhizi [5]; Phakopsora pachyrhizi, foliar, applied alone, 18 g/ha, read-out: Observed Activity (% of untreated) against Phakopsora pachyrhizi): 97%; Observed Activity (%) (% of untreated) against Phakopsora pachyrhizi (Phakopsora pachyrhizi [5]; applied alone, 2.25 g/ha): 71%; Observed Activity (%) (% of untreated) against Phakopsora pachyrhizi (Phakopsora pachyrhizi [5]; applied alone, 4.5 g/ha): 94%; Observed Activity (% of untreated) against Phakopsora pachyrhizi (Phakopsora pachyrhizi [5]; applied alone, 9 g/ha): 81% and 93%
CO/C=C(\Oc1cc(-n2ncc(C(F)(F)F)n2)ccc1C)C(=O)OC [X.10, methyl (Z)-3-methoxy-2-[2-methyl-5-[4-(trifluoromethyl)triazol-2-yl]phenoxy]prop-2-enoate] | ≥ 80% | ≥ 80% | ≥ 80% | – | 0% | – | – | – | ≥ 80% | 107 to 109 °C | 70% | 90% | 70% | 90% | inhibition at 0.03 ppm (Septoria glycines; 0.03 ppm, 100-0 scale, read-out: Activity (%) A): 0%; inhibition at 0.003125 ppm (Septoria tritici; 72 h, 0.003125 ppm): 70%; inhibition at 0.00625 ppm (Septoria tritici; 72 h, 0.00625 ppm): 90%; inhibition at 0.03 ppm (Septoria tritici; 72 h, 72 hrs): 0%; inhibition at 0.03 ppm ([7]; 0.03 ppm): 0%
